{
  "source": "ChEMBL document CHEMBL6127052",
  "about": "“Discovery of membrane-targeting amphiphilic honokiol derivatives containing an oxazolethione moiety to combat methicillin-resistant Staphylococcus aureus (MRSA) infections” (Eur J Med Chem, 2024)",
  "key": {"Staphylococcus aureus [1]": {"tested_on": "Staphylococcus aureus", "test": "Antibacterial activity against methicillin-resistant Staphylococcus aureus N315 by CLSI based micro-broth dilution method", "format": "functional"}, "Staphylococcus aureus [2]": {"tested_on": "Staphylococcus aureus", "test": "Antibacterial activity against methicillin-resistant Staphylococcus aureus clinical isolate M12 by CLSI based micro-broth dilution method", "format": "functional"}, "Staphylococcus aureus [3]": {"tested_on": "Staphylococcus aureus", "test": "Antibacterial activity against methicillin-resistant Staphylococcus aureus clinical isolate M16 by CLSI based micro-broth dilution method", "format": "functional"}, "Staphylococcus aureus [4]": {"tested_on": "Staphylococcus aureus", "test": "Antibacterial activity against methicillin-resistant Staphylococcus aureus clinical isolate M22 by CLSI based micro-broth dilution method", "format": "functional"}, "Escherichia coli": {"tested_on": "Escherichia coli", "test": "Antibacterial activity against Escherichia coli ATCC 25922 by CLSI based micro-broth dilution method", "format": "functional"}, "[5]": {"test": "Hemolytic activity in sheep erythrocytes incubated for 1 hr by absorbance based assay", "format": "toxicity, cell-based, Ovis aries, Erythrocyte"}, "Staphylococcus aureus [6]": {"tested_on": "Staphylococcus aureus", "test": "Induction of morphological changes in methicillin-resistant Staphylococcus aureus clinical isolate M12 assessed as concavity in cell membrane at 8 times MIC incubated for 4 hrs by SEM analysis", "format": "functional, organism-based"}, "Staphylococcus aureus [7]": {"tested_on": "Staphylococcus aureus", "test": "Induction of morphological changes in methicillin-resistant Staphylococcus aureus clinical isolate M12 assessed as torn cell membrane at 8 times MIC incubated for 4 hrs by SEM analysis", "format": "functional, organism-based"}, "Staphylococcus aureus [8]": {"tested_on": "Staphylococcus aureus", "test": "Antibacterial activity against methicillin-resistant Staphylococcus aureus clinical isolate M12 incubated for 16 to 18 hrs in presence of cardiolipin", "format": "functional", "settings": "time 16-18 hrs"}, "Staphylococcus aureus [9]": {"tested_on": "Staphylococcus aureus", "test": "Disruption of cell membrane in methicillin-resistant Staphylococcus aureus clinical isolate M12 assessed as fold increase in intracellular ROS level at 128 ug/ml incubated for 40 mins by DCFH-DA probe based analysis relative to control", "format": "functional", "settings": "dose 128 µg/ml"}, "[10]": {"test": "Stability in sheep plasma infected with methicillin-resistant Staphylococcus aureus clinical isolate M12 at 16 ug/ml pretreated compound with plasma for 6 hrs followed by bacterial infection for 16 to 18 hrs", "format": "ADME, cell-free, Ovis aries", "settings": "at 16 µg/mL, time 22-24 hrs"}, "[11]": {"test": "Toxicity in KM mouse assessed as animal survival at 5 to 80 mg/kg, sc", "format": "organism-based", "settings": "in vivo, dose 5-80 mg/kg"}, "[12]": {"test": "Toxicity in KM mouse assessed as mental abnormality at 5 to 80 mg/kg, sc", "format": "organism-based", "settings": "in vivo, dose 5-80 mg/kg"}, "[13]": {"test": "Toxicity in KM mouse assessed as formation of small erythema at administration site at >40 mg/kg, sc", "format": "organism-based", "settings": "in vivo"}, "[14]": {"test": "Toxicity in KM mouse assessed as formation of hard lumps at administration site at >40 mg/kg, sc", "format": "organism-based", "settings": "in vivo"}, "[15]": {"test": "Toxicity in KM mouse assessed as smooth skin at <20 mg/kg, sc", "format": "organism-based", "settings": "in vivo"}, "[16]": {"test": "Toxicity in KM mouse assessed as skin abnormality at <20 mg/kg, sc", "format": "organism-based", "settings": "in vivo"}, "[17]": {"test": "Toxicity in KM mouse assessed as change in albumin level at 20 mg/kg, sc measured after 24 hrs", "format": "organism-based", "settings": "in vivo"}, "[18]": {"test": "Toxicity in KM mouse assessed as change in urea level at 20 mg/kg, sc measured after 24 hrs", "format": "organism-based", "settings": "in vivo"}, "[19]": {"test": "Toxicity in KM mouse assessed as change in MCV level at 20 mg/kg, sc measured after 24 hrs", "format": "organism-based", "settings": "in vivo"}, "[20]": {"test": "Toxicity in KM mouse assessed as change in RBC count at 20 mg/kg, sc measured after 24 hrs", "format": "organism-based", "settings": "in vivo"}, "[21]": {"test": "Toxicity in KM mouse assessed as inflammatory cell infiltration in cardiac muscle fibers at 20 mg/kg, sc measured after 24 hrs by H and E staining based analysis", "format": "organism-based", "settings": "in vivo"}, "[22]": {"test": "Toxicity in KM mouse assessed as edema in hepatocytes at 20 mg/kg, sc measured after 24 hrs by H and E staining based analysis", "format": "organism-based", "settings": "in vivo"}, "[23]": {"test": "Toxicity in BALB/c mouse assessed as loss of lustrous hair at 40 mg/kg, ip bid for 7 days", "format": "organism-based", "settings": "in vivo, 168 h, time 7 day"}, "[24]": {"test": "Toxicity in BALB/c mouse assessed as smooth hair at <15 mg/kg, ip bid for 7 days", "format": "organism-based", "settings": "in vivo, 168 h, time 7 day"}, "Staphylococcus aureus [25]": {"tested_on": "Staphylococcus aureus", "test": "Antibacterial activity against methicillin-resistant Staphylococcus aureus clinical isolate M12 infected in KM mouse assessed as decrease in erythematous pustules in intradermal tissues at 5 mg/kg, sc measured after 24 hrs", "format": "functional, organism-based"}, "Staphylococcus aureus [26]": {"tested_on": "Staphylococcus aureus", "test": "Antibacterial activity against methicillin-resistant Staphylococcus aureus clinical isolate M12 infected in KM mouse assessed as decrease in bacterial survival rate at 5 mg/kg, sc measured after 24 hrs by drop-plate counting method relative to control", "format": "functional"}, "Staphylococcus aureus [27]": {"tested_on": "Staphylococcus aureus", "test": "Antibacterial activity against methicillin-resistant Staphylococcus aureus clinical isolate M12 infected in KM mouse assessed as reduction in TNF-alpha level at infection site at 10 mg/kg, sc measured after 24 hrs by ELISA", "format": "functional"}, "Staphylococcus aureus [28]": {"tested_on": "Staphylococcus aureus", "test": "Antibacterial activity against methicillin-resistant Staphylococcus aureus clinical isolate M12 infected in KM mouse assessed as reduction in IL-6 level at infection site at 10 mg/kg, sc measured after 24 hrs by ELISA", "format": "functional"}, "[29]": {"test": "Toxicity in KM mouse infected with methicillin-resistant Staphylococcus aureus clinical isolate M12 assessed as histopathological abnormality in liver at 5 to 10 mg/kg, sc measured after 24 hrs by H and E staining based analysis", "format": "organism-based", "settings": "in vivo, dose 5-10 mg/kg"}, "[30]": {"test": "Toxicity in KM mouse infected with methicillin-resistant Staphylococcus aureus clinical isolate M12 assessed as histopathological abnormality in spleen at 5 to 10 mg/kg, sc measured after 24 hrs by H and E staining based analysis", "format": "organism-based", "settings": "in vivo, dose 5-10 mg/kg"}, "Staphylococcus aureus [31]": {"tested_on": "Staphylococcus aureus", "test": "Antibacterial activity against methicillin-resistant Staphylococcus aureus clinical isolate M12 infected in sepsis BALB/c mouse model assessed as decrease in bacterial load in kidney at 12 mg/kg, ip administered consecutively at 12 hr-interval for 24 hrs measured after 24 hrs post-last dose", "format": "functional", "settings": "time 48 hrs"}, "Staphylococcus aureus [32]": {"tested_on": "Staphylococcus aureus", "test": "Antibacterial activity against methicillin-resistant Staphylococcus aureus clinical isolate M12 infected in sepsis BALB/c mouse model assessed as decrease in necrosis in hepatocytes at 12 mg/kg, ip administered consecutively at 12 hr-interval for 24 hrs measured after 24 hrs post-last dose by H and E staining based analysis", "format": "functional, organism-based", "settings": "time 48.0 hrs"}, "Staphylococcus aureus [33]": {"tested_on": "Staphylococcus aureus", "test": "Antibacterial activity against methicillin-resistant Staphylococcus aureus clinical isolate M12 infected in sepsis BALB/c mouse model assessed as decrease in necrosis in hepatocytes at 6 mg/kg, ip administered consecutively at 12 hr-interval for 24 hrs measured after 24 hrs post-last dose by H and E staining based analysis", "format": "functional, organism-based", "settings": "time 48.0 hrs"}, "Staphylococcus aureus [34]": {"tested_on": "Staphylococcus aureus", "test": "Antibacterial activity against methicillin-resistant Staphylococcus aureus clinical isolate M12 infected in sepsis BALB/c mouse model assessed as decrease in pathological change in red medulla of spleen at 6 mg/kg, ip administered consecutively at 12 hr-interval for 24 hrs measured after 24 hrs post-last dose by H and E staining based analysis", "format": "functional, organism-based", "settings": "time 48.0 hrs"}},
  "note": "Calls of active or inactive are those of the source. No cut-off for these calls is given here.",
  "data": [
    {"smiles": "C=CCc1cc(-c2ccc(OCCC[N+](C)(C)CC(=O)NCCCC)c(CC=C)c2)c2oc(=S)n(Cc3ccc(F)cc3)c2c1.[Br-]", "values": [
      {"measurement": "MIC", "setting": "Staphylococcus aureus [1]", "result": 4, "unit": "µg/mL"},
      {"measurement": "MIC", "setting": "Staphylococcus aureus [2]", "result": 2, "unit": "µg/mL"},
      {"measurement": "MIC", "setting": "Staphylococcus aureus [3]", "result": 2, "unit": "µg/mL"},
      {"measurement": "MIC", "setting": "Staphylococcus aureus [4]", "result": 4, "unit": "µg/mL"},
      {"measurement": "MIC", "setting": "Escherichia coli", "result": "> 128", "unit": "µg/mL"},
      {"measurement": "HC50 at 1 h", "setting": "[5]", "result": 157, "unit": "µg/mL"},
      {"measurement": "Activity", "setting": "Staphylococcus aureus [6]", "result": "Active"},
      {"measurement": "Activity", "setting": "Staphylococcus aureus [7]", "result": "Active"},
      {"measurement": "MIC", "setting": "Staphylococcus aureus [8]", "result": 32, "unit": "µg/mL"},
      {"measurement": "fold change (FC)", "setting": "Staphylococcus aureus [9]", "result": "~1.8"},
      {"measurement": "Stability", "setting": "[10]", "result": "Stable"},
      {"measurement": "Activity", "setting": "[11]", "result": "Non-Toxic"},
      {"measurement": "Activity", "setting": "[12]", "result": "Non-Toxic"},
      {"measurement": "Activity", "setting": "[13]", "result": "Toxic"},
      {"measurement": "Activity", "setting": "[14]", "result": "Toxic"},
      {"measurement": "Activity", "setting": "[15]", "result": "Non-Toxic"},
      {"measurement": "Activity", "setting": "[16]", "result": "Non-Toxic"},
      {"measurement": "Activity", "setting": "[17]", "result": "Non-Toxic"},
      {"measurement": "Activity", "setting": "[18]", "result": "Non-Toxic"},
      {"measurement": "Activity", "setting": "[19]", "result": "Non-Toxic"},
      {"measurement": "Activity", "setting": "[20]", "result": "Non-Toxic"},
      {"measurement": "Activity", "setting": "[21]", "result": "Non-Toxic"},
      {"measurement": "Activity", "setting": "[22]", "result": "Non-Toxic"},
      {"measurement": "Activity", "setting": "[23]", "result": "Toxic"},
      {"measurement": "Activity", "setting": "[24]", "result": "Non-Toxic"},
      {"measurement": "Activity", "setting": "Staphylococcus aureus [25]", "result": "inactive"},
      {"measurement": "Activity", "setting": "Staphylococcus aureus [26]", "result": 92.72, "unit": "%"},
      {"measurement": "Activity", "setting": "Staphylococcus aureus [27]", "result": 102.6, "unit": "pg/mL"},
      {"measurement": "Activity", "setting": "Staphylococcus aureus [28]", "result": 66.7, "unit": "pg/mL"},
      {"measurement": "Activity", "setting": "[29]", "result": "Non-Toxic"},
      {"measurement": "Activity", "setting": "[30]", "result": "Non-Toxic"},
      {"measurement": "Activity", "setting": "Staphylococcus aureus [31]", "result": 1.45, "unit": "log10CFU/g"},
      {"measurement": "Activity", "setting": "Staphylococcus aureus [32]", "result": "Active"},
      {"measurement": "Activity", "setting": "Staphylococcus aureus [33]", "result": "inactive"},
      {"measurement": "Activity", "setting": "Staphylococcus aureus [34]", "result": "inactive"}
    ]}
  ]
}
